# In US20030232851A1, “Viral treatment” (The Procter & Gamble Company, priority 1999, published 2003):
# Several values for one entry are separate records, joined by “and”; a condition that tells them apart may be missing. Equal entries are not always repeated.
# How the values were obtained:
# CEMROD = CEMROD screening: toxicity values (XTT); format: cell-based, human; design: Toxicity Values, samples 1-3 / Toxicity Values, average: unit not given here
# Protocol: After 6 days (or the experimental period) of incubation at 37° C. in a 5% carbon dioxide incubator the test plates are analyzed by staining with the tetrazolium dye XTT. […] On day 6 post-infection plates are removed from the incubator and observed. […] The results of the macroscopic observations were confirmed and enhanced by further microscopic analysis.
# Phenazine methosulfate (PMS) solution is prepared at 15 mg/ml in PBS and stored in the dark at −20° C. […] Fifty microliters of XTT/PMS is added to each well of the plate and the plate is reincubated or 4 hours at 37° C. […] Percent cell reduction, percent cell viability, IC25,50, & 95 and TC25,50, & 95 can then be calculated.
# [1] = test system: HIV-1 cell line, U937IIIB; test: Long term in vitro study, U937IIIB, reverse transcriptase; format: cell-based; design: reverse transcriptase data: unit not given here
# Protocol: A microtiter-based reveres transcriptase (RT) reaction is utilized (Buckheit et al (1991) AIDS Research and Human Retroviruses 7:295-302). Tritiated thymidine triphosphate (NEN)(TTP) is resuspended in distilled water at 5 Ci/ml. Poly rA and oligo dT are prepared as a stock solution which is kept at −20° C. The RT reaction buffer is prepared fresh on a daily basis and consists of 125 μl 1M EGTA, 125 μl water, 125 μl Triton X-100, 50 μl Tris (pH 7.4), 50 μl 1 MDDT, and 40 μl 1M MgCl2. These three solutions are mixed together in a ratio of 1 part TTP, 2.5 parts poly rA:oligo dT, 2.5 parts reaction buffer and 4 parts distilled water. Ten microliters of this reaction mixture is placed in a round bottom microtiter place and 15 μl of virus containing supernatant is added and mixed. The plate is incubated at 37° C. for 60 minutes. Following reaction, the reaction volume is spotted onto filter mats, washed 6 times for 5 minutes each in a 5% sodium phosphate buffer, 2 times for 1 minute each in distilled water, 2 times for 1 minute each in 70% ethanol, and then dried. The dried filter mat is placed in a plastic sample bag, Betaplate scintillation fluid is added and the bag is heat sealed. Incorporated radioactivity is quantified utilizing a Wallac Microbeta scintillation counter.
# Acute infection of most established human cell lines with HIV-1 results in the eventual establishment of a constitutive virus-producing chronically infected cell line. The cells can be passaged for long periods of time in culture without loss of virus production. These cells may be utilized to evaluate the effects of anti-HIV compounds on syncytium formation or to evaluate the effects of anti-HIV compounds on levels of virus production from these cells. […] Each of the cells contains an integrated HIV genome or provirus. Chronically infected CEM, H9 and U937 cell lines have been prepared and cultured by Southern Research Institute, Frederick Md. and are available from them.
# CEM-SS cells chronically infected with HIV isolate, for example SKI (CEM-SKI) are cultured in RPMI1640 tissue culture medium supplemented with 10% fetal bovine serum and antibiotics. […] CEM-SKI or other infected cells with no added drug are used as the control cells. Cells are allowed to grow to a density of approximately 1×10^6 cells/ml and are then passaged at a 1:10 dilution. […] The drug concentration in the flask is then increased two-fold and the cells maintained as above.
# The cell populations contain integrated copies of the HIV genome and constitutively produce HIV at relatively high levels or are latently infected and only produce virus after stimulation with phorbol esters, tumor necrosis factor or IL6 (U1 and ACH2). Reductions in virus products were observed when quantifying supernatant reverse transcriptase activity,
# A long term in vitro study of 2-(2-thienyl)-imidazolo [4,5-b]pyridine against an HIV-1 cell line, U9371IIIB was conducted at three different levels. The results with U937IIIB cells were reported at weekly intervals.
# [2] = Table 2 duplicate study, 0.32 μg/ml
# [3] = Table 2 duplicate study, 1 μg/ml
# [4] = Table 2 duplicate study, 1.0 μg/ml
# [5] = Table 2 duplicate study, 3.2 μg/ml
# [6] = Table 2 duplicate study, 32 μg/ml
# [7] = Table 2 duplicate study, 100 μg/ml
smiles,measurement,setting,value
"c1csc(-c2nc3cccnc3[nH]2)c1 [2-(2-thienyl)-imidazolo [4,5-b]pyridine]","Toxicity Values, % cell control","CEMROD; Table 1, 0.32 μg/ml",102%
same,"Toxicity Values, average","CEMROD; Table 1, 0.32 μg/ml",1.144
same,"Toxicity Values, % cell control","CEMROD; Table 1, 1 μg/ml",100.1%
same,"Toxicity Values, average","CEMROD; Table 1, 1 μg/ml",1.122
same,"Toxicity Values, % cell control","CEMROD; Table 1, 1.0 μg/ml",81.3%
same,"Toxicity Values, average","CEMROD; Table 1, 1.0 μg/ml",0.912
same,"Toxicity Values, % cell control","CEMROD; Table 1, 3.2 μg/ml",94.1%
same,"Toxicity Values, average","CEMROD; Table 1, 3.2 μg/ml",1.055
same,"Toxicity Values, % cell control","CEMROD; Table 1, 32 μg/ml",28.7%
same,"Toxicity Values, average","CEMROD; Table 1, 32 μg/ml",0.322
same,"Toxicity Values, % cell control","CEMROD; Table 1, 100 μg/ml",7.6%
same,"Toxicity Values, average","CEMROD; Table 1, 100 μg/ml",0.086
same,"Toxicity Values, % cell control",CEMROD; [2],114.7%
same,"Toxicity Values, average",CEMROD; [2],1.088
same,"Toxicity Values, samples 1-3",CEMROD; [2],1.189 and 1.074 and 1.000
same,"Toxicity Values, % cell control",CEMROD; [3],108.4%
same,"Toxicity Values, average",CEMROD; [3],1.028
same,"Toxicity Values, samples 1-3",CEMROD; [3],1.066 and 1.038 and 0.980
same,"Toxicity Values, % cell control",CEMROD; [4],72.2%
same,"Toxicity Values, average",CEMROD; [4],0.684
same,"Toxicity Values, samples 1-3",CEMROD; [4],0.694 and 0.726 and 0.633
same,"Toxicity Values, % cell control",CEMROD; [5],98.9%
same,"Toxicity Values, average",CEMROD; [5],0.938
same,"Toxicity Values, samples 1-3",CEMROD; [5],1.008 and 0.924 and 0.881
same,"Toxicity Values, % cell control",CEMROD; [6],17.4%
same,"Toxicity Values, average",CEMROD; [6],0.165
same,"Toxicity Values, samples 1-3",CEMROD; [6],0.183 and 0.168 and 0.145
same,"Toxicity Values, % cell control",CEMROD; [7],13.5%
same,"Toxicity Values, average",CEMROD; [7],0.128
same,"Toxicity Values, samples 1-3",CEMROD; [7],0.121 and 0.133 and 0.130
same,toxicity (in words),CEMROD; at the higher concentrations,not toxic
same,reverse transcriptase data,"[1]; 7 μg/ml, day 4",2100
same,reverse transcriptase data,"[1]; 7 μg/ml, day 11",2205
same,reverse transcriptase data,"[1]; 7 μg/ml, day 18",2245
same,reverse transcriptase data,"[1]; 7 μg/ml, day 25",2212
same,reverse transcriptase data,"[1]; 7 μg/ml, day 32",2347
same,reverse transcriptase data,"[1]; 7 μg/ml, day 39",2516
same,reverse transcriptase data,"[1]; 7 μg/ml, day 46",1968
same,reverse transcriptase data,"[1]; 7 μg/ml, day 53",1695
same,reverse transcriptase data,"[1]; 7 μg/ml, day 60",2887
same,reverse transcriptase data,"[1]; 7 μg/ml, day 67",4170
same,reverse transcriptase data,"[1]; 7 μg/ml, day 71",7786
same,reverse transcriptase data,"[1]; 7 μg/ml, day 74",6119
same,reverse transcriptase data,"[1]; 7 μg/ml, day 88",6880
same,reverse transcriptase data,"[1]; 7 μg/ml, day 95",5041
same,reverse transcriptase data,"[1]; 7 μg/ml, day 102",5072
same,reverse transcriptase data,"[1]; 7 μg/ml, day 109",7437
same,reverse transcriptase data,"[1]; 15 μg/ml, day 4",1188
same,reverse transcriptase data,"[1]; 15 μg/ml, day 11",713
same,reverse transcriptase data,"[1]; 15 μg/ml, day 18",993
same,reverse transcriptase data,"[1]; 15 μg/ml, day 25",1900
same,reverse transcriptase data,"[1]; 15 μg/ml, day 32",2003
same,reverse transcriptase data,"[1]; 15 μg/ml, day 39",1326
same,reverse transcriptase data,"[1]; 15 μg/ml, day 46",987
same,reverse transcriptase data,"[1]; 15 μg/ml, day 53",1221
same,reverse transcriptase data,"[1]; 15 μg/ml, day 60",1205
same,reverse transcriptase data,"[1]; 15 μg/ml, day 67",2314
same,reverse transcriptase data,"[1]; 15 μg/ml, day 71",4265
same,reverse transcriptase data,"[1]; 15 μg/ml, day 74",5689
same,reverse transcriptase data,"[1]; 15 μg/ml, day 88",6832
same,reverse transcriptase data,"[1]; 15 μg/ml, day 95",4988
same,reverse transcriptase data,"[1]; 15 μg/ml, day 102",3912
same,reverse transcriptase data,"[1]; 15 μg/ml, day 109",4294
same,reverse transcriptase data,"[1]; 30 μg/ml, day 4",996
same,reverse transcriptase data,"[1]; 30 μg/ml, day 11",180
same,reverse transcriptase data,"[1]; 30 μg/ml, day 18",417
same,reverse transcriptase data,"[1]; 30 μg/ml, day 25",588
same,reverse transcriptase data,"[1]; 30 μg/ml, day 32",716
same,reverse transcriptase data,"[1]; 30 μg/ml, day 39",625
same,reverse transcriptase data,"[1]; 30 μg/ml, day 46",542
same,reverse transcriptase data,"[1]; 30 μg/ml, day 53",208
same,reverse transcriptase data,"[1]; 30 μg/ml, day 60",504
same,reverse transcriptase data,"[1]; 30 μg/ml, day 67",782
same,reverse transcriptase data,"[1]; 30 μg/ml, day 71",1414
same,reverse transcriptase data,"[1]; 30 μg/ml, day 74",1059
same,reverse transcriptase data,"[1]; 30 μg/ml, day 88",1811
same,reverse transcriptase data,"[1]; 30 μg/ml, day 95",1988
same,reverse transcriptase data,"[1]; 30 μg/ml, day 102",1695
same,reverse transcriptase data,"[1]; 30 μg/ml, day 109",1542
same,reverse transcriptase data on continuation (in words),[1]; run through 242 days,data remained consistent
